Tests used:
[1] = biological target: T1, Human albumin (Homo sapiens, UniProt P02768); experiment: Fluorescence polarization albumin binding assay, purified human albumin
T1 construct: purchased Sigma-Aldrich A1653
Protocol: Forty-five microlitre of the dilutions were added to 15 μl of fluorescent peptide (100 nM) in black 96-well half area microtitre plates. […] The final concentration of fluorescent peptide was 25 nM in all wells. Fluorescence anisotropy was measured with an Infinite M200Pro plate reader (Tecan) using an excitation filter at 485 nm and an emission filter at 535 nm. Dissociation constant (KD) were determined by nonlinear regression analysis of anisotropy versus the total concentration of proteins [P]T using the following equation: […]
A is the experimental fluorescence anisotropy. Af and Ab are the fluorescence anisotropy for the free and the fully bound fluorescent ligand, respectively. [L]T and [P]T represent the total fluorescent ligand and protein concentration, respectively. KD is the dissociation constant for the binding equilibrium. Values were calculated with Prism 5 (GraphPad software).

[2] = applied intravenously; cited from earlier work
[3] = biological target: insulin detemir (Homo sapiens) (UniProt P01308); details: cited from earlier work
[4] = tested on: albumin; details: cited from earlier work

Sequence of insulin detemir (Homo sapiens) (F8WCM5 25-53, chain 1 of 2): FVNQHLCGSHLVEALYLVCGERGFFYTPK
Sequence of insulin detemir (Homo sapiens) (P01308 90-110, chain 2 of 2): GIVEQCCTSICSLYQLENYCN

Substance: (F)-EYEKpalmEYE [tag]
- improvement of Kd compared to the starting peptide-palmitoyl tag [1]: 27 fold

Substance: oxytocin
- half-life [2]: 10 to 15 min

Substance: albumin (from UniProt P02768)
- Kd [3]: 4.2 µM

Substance: insulin degludec
- higher affinity for albumin than insulin detemir [4]: 2.4 fold

Reference: PMC5520048 (Nature Communications, 2017)
